# According to patent US20240190876A1, “Tricyclic Urea Compounds As JAK2 V617F Inhibitors” (Incyte Corporation, priority 2022, published 2024):
# Assays:
# [1] = target: T1, pseudo-kinase domain (JH2) of human V617F mutant JAK2 (Homo sapiens, UniProt O60674, F794H/V617F/W659A/W777A); assay: JAK2 LanthaScreen JH2-V617F Binding Assay; conditions: 50 nM JAK2-JH2 tracer, 1 hour at 25° C., read-out: JH2 V617F Bind IC50
# T1 construct: pseudo-kinase domain (JH2, amino-acids 536-812 with 3 surface mutations W659A, W777A, F794H); His (C); purchased BPS Bioscience 79498; host or cells: baculovirus expression system
# Protocol: JAK2 JH2-V617F binding assay utilizes pseudo-kinase domain (JH2, amino-acids 536-812 with 3 surface mutations W659A, W777A, F794H) of human V617F mutant JAK2 expressed as C-terminal His-Avi-tagged, biotinylated protein in a baculovirus expression system (BPS Bioscience, Catalog #79498). The assay was conducted in black 384-well polystyrene plates in a final reaction volume of 20 μL. JAK2 JH2-V617F (0.26 nM) was incubated with compounds (100 nL serially diluted in DMSO) in the presence of 50 nM Fluorescent JAK2-JH2 Tracer (MedChem Express Catalog #HY-102055) and 0.25 nM Streptavidin-Tb cryptate (Cisbio Part #610SATLB) in assay buffer (50 mM Tris, pH=7.5, 10 mM MgCl2, 0.01% Brij-35, 0.1% BSA, 1 mM EGTA, 5% Glycerol and 5 mM DTT). Non-specific binding was accessed in the presence of 2 mM ATP. After incubation for 1 hour at 25° C., LanthaScreen signals were read on a PHERAstar FS plate reader (BMG LABTECH). Data was analyzed with IDBS XLfit and GraphPad Prism 5.0 software using a four parameter dose response curve to determine IC50 for each compound.
# [2] = target: T2, catalytic domain (JH1) of human JAK2 (Homo sapiens, UniProt O60674); assay: JAK2 LanthaScreen JH1 Binding Assay; conditions: 50 nM JAK2-JH1 tracer, 2 hours at 25° C., read-out: JH1 Bind IC50
# T2 construct: catalytic domain (JH1, amino acids 826-1132) of human JAK2; FLAG (N); purchased Carna Biosciences 08-445-20N; host or cells: baculovirus expression system
# Protocol: JAK2 JH1 binding assay utilizes catalytic domain (JH1, amino acids 826-1132) of human JAK2 expressed as N-terminal FLAG-tagged, biotinylated protein in a baculovirus expression system (Carna Biosciences, Product #08-445-20N). The assay was conducted in black 384-well polystyrene plates in a final reaction volume of 20 μL. JAK2 JH1 (1.5 nM) was incubated with compounds (100 nL serially diluted in DMSO) in the presence of 50 nM fluorescent JAK2-JH1 tracer and 0.5 nM Streptavidin-Tb cryptate (Cisbio Part #610SATLB) in assay buffer (50 mM Tris, pH=7.5, 10 mM MgCl2, 0.01% Brij-35, 0.1% BSA, 1 mM EGTA, 5% Glycerol and 5 mM DTT). Non-specific binding was accessed in the presence of 2 mM ATP. After incubation for 2 hours at 25° C., LanthaScreen signals were read on a PHERAstar FS plate reader (BMG LABTECH). Data was analyzed with IDBS XLfit and GraphPad Prism 5.0 software using a four parameter dose response curve to determine IC50 for each compound.
# FLT3 [3] = target: T3, FLT3 (Homo sapiens, UniProt P36888); assay: FLT3 Enzymatic Assay; format: biochemical; conditions: HTRF kinase assay, 1 mM ATP
# T3 sequence (P36888 27-993): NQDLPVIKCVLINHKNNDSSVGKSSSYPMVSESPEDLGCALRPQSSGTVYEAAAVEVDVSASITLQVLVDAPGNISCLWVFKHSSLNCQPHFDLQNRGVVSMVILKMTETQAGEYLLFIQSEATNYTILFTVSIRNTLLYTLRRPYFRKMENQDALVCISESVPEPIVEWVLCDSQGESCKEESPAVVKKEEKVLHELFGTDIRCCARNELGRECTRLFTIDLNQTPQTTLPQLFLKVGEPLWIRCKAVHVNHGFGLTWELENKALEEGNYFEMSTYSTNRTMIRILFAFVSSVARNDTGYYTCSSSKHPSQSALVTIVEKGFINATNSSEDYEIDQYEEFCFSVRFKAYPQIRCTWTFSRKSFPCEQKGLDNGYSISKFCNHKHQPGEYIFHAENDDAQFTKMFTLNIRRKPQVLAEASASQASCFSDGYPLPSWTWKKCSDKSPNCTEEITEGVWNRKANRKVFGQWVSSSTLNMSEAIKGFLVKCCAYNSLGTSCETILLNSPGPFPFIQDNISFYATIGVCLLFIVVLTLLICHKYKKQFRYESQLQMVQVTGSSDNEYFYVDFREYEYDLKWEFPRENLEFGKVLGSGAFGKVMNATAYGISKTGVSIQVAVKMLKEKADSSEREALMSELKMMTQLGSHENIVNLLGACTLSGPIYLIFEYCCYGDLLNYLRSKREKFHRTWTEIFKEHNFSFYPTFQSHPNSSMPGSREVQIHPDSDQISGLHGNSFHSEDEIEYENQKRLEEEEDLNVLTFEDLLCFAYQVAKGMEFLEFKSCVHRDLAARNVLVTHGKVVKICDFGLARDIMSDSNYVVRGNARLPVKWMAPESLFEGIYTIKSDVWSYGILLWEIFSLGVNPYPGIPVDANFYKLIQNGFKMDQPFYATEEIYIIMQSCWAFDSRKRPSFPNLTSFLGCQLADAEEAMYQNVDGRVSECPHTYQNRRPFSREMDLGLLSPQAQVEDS
# Protocol: (§1) The kinase assays were carried out at room temperature in assay buffer (HEPES 50 mM, pH 7.0, NaN3 0.02%, BSA 0.01%, Orthovanadate 0.1 mM, DTT 1 mM, MgCl2 10 mM) in a final volume of 10 μL. Testing compounds were prepared by serial dilution in DMSO and transferred to the plate wells by ECHO liquid handler (Labcyte) with 0.5% DMSO in the final assay. […]. Reactions were initiated by the addition of 5 μL ATP in assay buffer. The final 10 μL kinase reaction consists of 0.011 nM FLT3, 1 mM ATP, 500 nM TK Substrate-biotin and SEB reagent 62.5 nM in assay buffer. […] The plates were then sealed and centrifuged at 1800 rpm for 2 minutes. After 60 minutes incubation at room temperature, the product activity was determined by measuring the fluorescence at 620 nm and 665 nm on Pherastar microplate reader (BMG Labtech). A ratio is calculated (665/620 nm) for each well. Wells with DMSO only were served as the positive controls and wells containing no ATP were used as negative controls. IC50 determination was performed by fitting the curve of percent control activity versus the log of the compound concentration using the GraphPad Prism 7.0 software.
# FLT3 [4] = assay: FLT3 Enzymatic Assay; format: biochemical; conditions: ratio FLT3 IC50 / JH2 V617F binding IC50
# Protocol: as §1
# T1 sequence (O60674 536-812 V617F/W659A/W777A/F794H): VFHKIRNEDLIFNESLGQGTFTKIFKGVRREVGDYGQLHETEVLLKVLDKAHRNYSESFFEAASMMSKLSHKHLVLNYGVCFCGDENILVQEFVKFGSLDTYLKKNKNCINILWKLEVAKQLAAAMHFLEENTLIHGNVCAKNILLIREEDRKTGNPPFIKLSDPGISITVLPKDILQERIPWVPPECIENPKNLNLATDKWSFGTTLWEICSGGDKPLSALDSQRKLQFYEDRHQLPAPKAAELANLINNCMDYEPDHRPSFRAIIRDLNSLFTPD
# T2 sequence (O60674 826-1132): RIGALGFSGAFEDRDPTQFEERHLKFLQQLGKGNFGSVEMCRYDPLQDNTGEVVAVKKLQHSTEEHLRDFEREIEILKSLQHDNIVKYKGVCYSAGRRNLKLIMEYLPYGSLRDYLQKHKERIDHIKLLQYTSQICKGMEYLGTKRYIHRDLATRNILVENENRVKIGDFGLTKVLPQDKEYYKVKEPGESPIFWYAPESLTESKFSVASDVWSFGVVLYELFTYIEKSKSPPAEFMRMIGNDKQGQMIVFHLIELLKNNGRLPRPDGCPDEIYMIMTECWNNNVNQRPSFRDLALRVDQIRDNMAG
SMILES,IC50 [1],IC50 [2],IC50 (FLT3 [3]),Selectivity FLT3/JH2 V617F (FLT3 [4])
"COc1ccc(-c2c(-c3cn(C)nc3OC)[nH]c3ncc4c(c23)n([C@H]2CC[C@@](C)(NC(=O)C3CC3)CC2)c(=O)n4C)cc1 [Example 1, N-((1s,4s)-4-(7-(3-Methoxy-1-methyl-1H-pyrazol-4-yl)-8-(4-methoxyphenyl)-3-methyl-2-oxo-3,6-dihydroimidazo[4,5-d]pyrrolo[2,3-b]pyridin-1(2H)-yl)-1-methylcyclohexyl)cyclopropanecarboxamide]",≤ 10 nM,> 1000 nM,> 2500 nM,***** (***** refers to selectivity of >5000-fold to ≤12500-fold)
"[2H]C([2H])([2H])n1cc(-c2[nH]c3ncc4c(c3c2-c2ccc3c(cnn3C([2H])([2H])[2H])c2)n([C@H]2CC[C@@](C)(NC(=O)C3CC3)CC2)c(=O)n4C)c(F)n1 [Example 4, N-((1s,4s)-4-(7-(3-fluoro-1-(methyl-d3)-1H-pyrazol-4-yl)-3-methyl-8-(1-(methyl-d3)-1H-indazol-5-yl)-2-oxo-3,6-dihydroimidazo[4,5-d]pyrrolo[2,3-b]pyridin-1(2H)-yl)-1-methylcyclohexyl)cyclopropanecarboxamide]",≤ 10 nM,> 1000 nM,250 to 1250 nM,*** (*** refers to selectivity of >1500-fold to ≤1750-fold)
"[2H]C([2H])([2H])n1cc(-c2[nH]c3ncc4c(c3c2-c2ccc(OC)cc2)n([C@H]2CC[C@@](C)(NC(=O)C3CC3)CC2)c(=O)n4C)c(F)n1 [Example 3, N-((1s,4s)-4-(7-(3-fluoro-1-(methyl-d3)-1H-pyrazol-4-yl)-8-(4-methoxyphenyl)-3-methyl-2-oxo-3,6-dihydroimidazo[4,5-d]pyrrolo[2,3-b]pyridin-1(2H)-yl)-1-methylcyclohexyl)cyclopropanecarboxamide]",≤ 10 nM,> 1000 nM,250 to 1250 nM,** (** refers to selectivity of >500-fold to ≤1500-fold)
"[2H]C([2H])([2H])n1cc(-c2[nH]c3ncc4c(c3c2-c2ccc(OC)cc2)n([C@H]2CC[C@@](C)(NC(=O)[C@H]3C[C@H]3F)CC2)c(=O)n4C([2H])([2H])[2H])c(F)n1 [Example 6, (1R,2R)-2-Fluoro-N-((1s,4S)-4-(7-(3-fluoro-1-(methyl-d3)-1H-pyrazol-4-yl)-8-(4-methoxyphenyl)-3-(methyl-d3)-2-oxo-3,6-dihydroimidazo[4,5-d]pyrrolo[2,3-b]pyridin-1(2H)-yl)-1-methylcyclohexyl)cyclopropane-1-carboxamide]",≤ 10 nM,> 1000 nM,25 to 250 nM,** (** refers to selectivity of >500-fold to ≤1500-fold)
"[2H]C([2H])([2H])n1ncc2cc(-c3c(-c4cn(CC)nc4F)[nH]c4ncc5c(c34)n([C@H]3CC[C@@](C)(NC(=O)C4CC4)CC3)c(=O)n5C)ccc21 [Example 5, N-((1s,4s)-4-(7-(1-Ethyl-3-fluoro-1H-pyrazol-4-yl)-3-methyl-8-(1-(methyl-d3)-1H-indazol-5-yl)-2-oxo-3,6-dihydroimidazo[4,5-d]pyrrolo[2,3-b]pyridin-1(2H)-yl)-1-methylcyclohexyl)cyclopropanecarboxamide]",≤ 10 nM,> 1000 nM,25 to 250 nM,** (** refers to selectivity of >500-fold to ≤1500-fold)
"[2H]C([2H])([2H])n1ncc2cc(-c3c(-c4cn(C)nc4OC)[nH]c4ncc5c(c34)n([C@H]3CC[C@@](C)(NC(=O)C4CC4)CC3)c(=O)n5C)ccc21 [Example 2, N-((1s,4s)-4-(7-(3-Methoxy-1-methyl-1H-pyrazol-4-yl)-3-methyl-8-(1-(methyl-d3)-1H-indazol-5-yl)-2-oxo-3,6-dihydroimidazo[4,5-d]pyrrolo[2,3-b]pyridin-1(2H)-yl)-1-methylcyclohexyl)cyclopropanecarboxamide]",≤ 10 nM,> 1000 nM,1250 to 2500 nM,****** (****** refers to selectivity of >12500-fold)
